Data: article PMC4021201, “Repositioning: the fast track to new anti-malarial medicines?” (Malaria Journal, 2014)
Where two headings read alike, the source gives them in different places. Starred links: 1 amine or outer side, 2 acyl side, 3 side chain; linkers in the order of their positions; H or OH if unused. Positions of bridges follow the written chain, without caps; N, C: chain ends. Non-standard residues stand in square brackets, D forms with d. Residues, ends and D or L forms follow the SMILES beside them. Chains are numbered I, II in the order given. Actinocin(9to1) = Cc1c2oc3c(C)ccc(C(=O)[*:1])c3nc-2c(C(=O)[*:2])c(N)c1=O; NMeV = CN[C@H](C(=O)O)C(C)C; Sar = CNCC(=O)O

Tests used:
P. falciparum K1 = assay: SYBR I dye DNA staining assay (SJCRH), P. falciparum K1; conditions: read-out: EC50 K1
Protocol: (§1) SJCRH used the SYBR® I dye DNA staining assay, which measures proliferation of P. falciparum in human erythrocytes [27]. Plasmodium falciparum strains 3D7 (chloroquine-sensitive) and K1 (chloroquine-resistant) (American Type Culture Collection [ATCC], Manassas, VA, USA) were maintained using established methods [28]. The assay method is as previously described [29]. […] EC50 values were calculated with the robust investigation of screening experiments (RISE) algorithm with a four-parameter logistic equation.
(§2) This group used the SYBR® I dye DNA staining assay, which measures proliferation of P. falciparum in human erythrocytes [1]. Plasmodium falciparum strains 3D7 (chloroquine-sensitive) and K1 (chloroquine-resistant) (American Type Culture Collection [ATCC], Manassas, VA) were maintained in group O? erythrocytes (Key Biologics, LLC, Memphis, TN) using established methods [2]. Serial dilutions of the test compound in DMSO were prepared to provide 10 concentrations for each compound. […] After addition of 10 µL mixed DNA dye solution in PBS per test well (10× SYBR® I, [Invitrogen, Carlsbad, CA]), 0.5% [vol/vol] Triton X-100, 0.5 mg/mL saponin), plates were shaken for 1 min at 750 rpm and incubated in the dark for 90 min. Fluorescence was measured with an EnVision®spectrophotometer (PerkinElmer, Waltham, MA) [3]. […] EC50 values were calculated with the robust investigation of screening experiments (RISE) algorithm with a four-parameter logistic equation.

P. falciparum 3D7 = assay: SYBR I dye DNA staining assay (SJCRH), P. falciparum 3D7; conditions: read-out: EC50 3D7
Protocol: as §1, §2

[1] = Plasmodium falciparum, K1, 72 h
[2] = Plasmodium falciparum, 3D7, 72 h
[3] = mean (95% CI), SYBR I fluorescence assay, chloroquine-resistant strain, 72 h
[4] = mean (95% CI), SYBR I fluorescence assay, chloroquine-sensitive strain, 72 h

Structure (SMILES)	EC50 (P. falciparum K1; [1])	EC50 (P. falciparum 3D7; [2])	EC50 (P. falciparum K1; [3])	EC50 (P. falciparum 3D7; [4])
N=C(N)c1ccc(OCCCCCOc2ccc(C(=N)N)cc2)cc1 [Pentamidine]	0.05 µM	0.22 µM	–	–
COc1cc(Nc2c(C#N)cnc3cc(OCCCN4CCN(C)CC4)c(OC)cc23)c(Cl)cc1Cl [Bosutinib]	0.65 µM	0.22 µM	–	–
CNC(=O)c1cc(Oc2ccc(NC(=O)Nc3ccc(Cl)c(C(F)(F)F)c3)cc2)ccn1 [Sorafenib]	0.88 µM	2.71 µM	–	–
Cc1c(N(C)CS(=O)(=O)O)c(=O)n(-c2ccccc2)n1C [Dipyrone]	–	–	0.5 µM	0.84 µM
CN(Cc1cnc2nc(N)nc(N)c2n1)c1ccc(C(=O)N[C@@H](CCC(=O)O)C(=O)O)cc1 [Methotrexate]	0.02 µM	0.01 µM	–	–
COc1cccc2c1C(=O)c1c(O)c3c(c(O)c1C2=O)C[C@@](O)(C(=O)CO)C[C@@H]3O[C@H]1C[C@H](N)[C@H](O)[C@H](C)O1 [Doxorubicin]	0.2 µM	0.21 µM	–	–
Cc1ccnc(NS(=O)(=O)c2ccc(N)cc2)n1 [Sulfamerazine]	0.01 µM	0.01 µM	–	–
CS(=O)(=O)CCNCc1ccc(-c2ccc3ncnc(Nc4ccc(OCc5cccc(F)c5)c(Cl)c4)c3c2)o1 [Lapatinib]	> 7.37 µM	0.56 µM	–	–
CN(CCCCCCCCCCN(C)C(=O)Oc1cccc([N+](C)(C)C)c1)C(=O)Oc1cccc([N+](C)(C)C)c1 [Demecarium]	0.3 µM	0.51 µM	–	–
CC(C)C[C@H](NC(=O)[C@H](Cc1ccccc1)NC(=O)c1cnccn1)B(O)O [Bortezomib]	0.08 µM	0.02 µM	–	–
Nc1nc(N)c2nc(CNc3ccc(C(=O)N[C@@H](CCC(=O)O)C(=O)O)cc3)cnc2n1 [Aminopterin]	1.25 µM	0.32 µM	–	–
CO[C@@]12[C@H](COC(N)=O)C3=C(C(=O)C(C)=C(N)C3=O)N1C[C@@H]1N[C@@H]12 [Mitomycin]	0.51 µM	0.97 µM	–	–
Cc1cc(N)c2ccccc2[n+]1CCCCCCCCCC[n+]1c(C)cc(N)c2ccccc21 [Dequalinium]	0.06 µM	0.06 µM	–	–
CO[C@@H]1[C@H](N(C)C(=O)c2ccccc2)C[C@H]2O[C@]1(C)n1c3ccccc3c3c4c(c5c6ccccc6n2c5c31)C(=O)NC4 [Midostaurin]	–	0.35 µM	–	–
CN1CCN(CC/C=C2/c3ccccc3Sc3ccc(S(=O)(=O)N(C)C)cc32)CC1 [Thiothixene]	0.02 µM	0.04 µM	–	–
CCCNCC(O)COc1ccccc1C(=O)CCc1ccccc1 (centres unmarked) [Propafenone]	0.33 µM	1.22 µM	–	–
Cc1c2oc3c(C)ccc(C(=O)N[C@@H]4C(=O)N[C@H](C(C)C)C(=O)N5CCC[C@H]5C(=O)N(C)CC(=O)N(C)[C@@H](C(C)C)C(=O)O[C@@H]4C)c3nc-2c(C(=O)N[C@@H]2C(=O)N[C@H](C(C)C)C(=O)N3CCC[C@H]3C(=O)N(C)CC(=O)N(C)[C@@H](C(C)C)C(=O)O[C@@H]2C)c(N)c1=O [Dactinomycin] (I: T[dV]P[Sar][NMeV] / II: T[dV]P[Sar][NMeV]; ester I:1-I:C, II:1-II:C; linker I:N-II:N via Actinocin(9to1))	0.001 µM	0.0009 µM	–	–
CN(C)c1ccc2nc3ccc(=[N+](C)C)cc-3sc2c1 [Methylene blue]	< 0.0003 µM	< 0.0003 µM	–	–
CC[C@H](C)C(=O)O[C@H]1C[C@H](O)C=C2C=C[C@H](C)[C@H](CC[C@@H](O)C[C@@H](O)CC(=O)O)[C@H]21 [Pravastatin]	0.12 µM	0.75 µM	–	–
O=c1[nH]c2ccccc2n1C1CCN(CCCC(c2ccc(F)cc2)c2ccc(F)cc2)CC1 [Pimozide]	> 12.8 µM	0.7 µM	–	–
CC(=O)[C@@]1(O)CC[C@H]2[C@@H]3C=C(Cl)C4=CC(=O)[C@@H]5C[C@@H]5[C@]4(C)[C@H]3CC[C@@]21C [Cyproterone]	–	–	0.89 µM	0.56 µM
